Measurements taken from ChEMBL document CHEMBL2311484, “Synthesis and biological evaluation of a new series of phenothiazine-containing protein farnesyltransferase inhibitors” (Eur J Med Chem, 2013).

Target: Protein farnesyltransferase (Homo sapiens, UniProt P49354+P49356)
Assay: Inhibition of human recombinant FTase activity using dansyl-GCVLS-peptide
Format: protein-complex assay

SMILES	IC50
CN(C)c1cc[n+](C(C=C(C#N)C#N)C(=O)N2c3ccccc3Sc3ccc(Cl)cc32)cc1 (stereo not drawn)	3.18 µM
CCOC(=O)/C(C#N)=C/C(C(=O)N1c2ccccc2Sc2ccc(Cl)cc21)[n+]1ccc(N(C)C)cc1 (stereo not drawn)	4.92 µM
N#CC(C#N)=CC(C(=O)N1c2ccccc2Sc2ccccc21)[n+]1ccccc1 (stereo not drawn)	13.1 µM
CCOC(=O)/C(C#N)=C/C(C(=O)N1c2ccccc2Sc2ccccc21)[n+]1ccccc1 (stereo not drawn)	15 µM
Cc1ccc[n+](C(C=C(C#N)C#N)C(=O)N2c3ccccc3Sc3ccccc32)c1 (stereo not drawn)	11 µM
CCOC(=O)/C(C#N)=C/C(C(=O)N1c2ccccc2Sc2ccccc21)[n+]1cccc(C)c1 (stereo not drawn)	7.01 µM
COc1cc[n+](C(C=C(C#N)C#N)C(=O)N2c3ccccc3Sc3ccccc32)cc1 (stereo not drawn)	10.3 µM
CCOC(=O)/C(C#N)=C/C(C(=O)N1c2ccccc2Sc2ccccc21)[n+]1ccc(OC)cc1 (stereo not drawn)	13.7 µM
Cc1cc(C)c[n+](C(C=C(C#N)C#N)C(=O)N2c3ccccc3Sc3ccccc32)c1 (stereo not drawn)	6.36 µM
CCOC(=O)/C(C#N)=C/C(C(=O)N1c2ccccc2Sc2ccccc21)[n+]1cc(C)cc(C)c1 (stereo not drawn)	7.27 µM
N#CC(C#N)=CC=C1C=CN(CC(=O)N2c3ccccc3Sc3ccccc32)C=C1	0.65 µM
CCOC(=O)/C(C#N)=C\C=C1C=CN(CC(=O)N2c3ccccc3Sc3ccccc32)C=C1	0.63 µM
N#CC(C#N)=C/C=C1\C=CC=CN1CC(=O)N1c2ccccc2Sc2ccccc21	1.2 µM
CCOC(=O)/C(C#N)=C\C=C1/C=CC=CN1CC(=O)N1c2ccccc2Sc2ccccc21	1.07 µM
CCOC(=O)/C(C#N)=C\C=C1C=CN(CC(=O)N(CC)CC)C=C1	43.1 µM
CN(C)c1cc[n+](C(C=C(C#N)C#N)C(=O)N2c3ccccc3Sc3ccccc32)cc1 (stereo not drawn)	4.67 µM
CCOC(=O)/C(C#N)=C/C(C(=O)N1c2ccccc2Sc2ccccc21)[n+]1ccc(N(C)C)cc1 (stereo not drawn)	5.33 µM
CN(C)c1cc[n+](C(/C=C/C(=O)O)C(=O)N2c3ccccc3Sc3ccccc32)cc1 (stereo not drawn)	86.5 µM
